Source: patent US11576892B2, “Benzopyran derivatives and uses thereof” (Novation Pharmaceuticals Inc., priority 2015, dated 2023)

Columns and labels:
[1] = test system: IL-6 release from THP 1 cells; experiment: IL-6 release from THP 1 cells measured by ELISA; type: cell-based, human; conditions: IFNγ/LPS-stimulated THP 1 cells, 24 h
Method: (§1) The THP 1 cell line is generally available and is described by Tsuchia et. al. Tsuchiya, Yamabe et al. (1980). Establishment and characterization of a human acute monocytic leukemia cell line (THP-1). Int J Cancer. 26: 171-176.
(§2) 900 μl THP 1 cells (0.5×10^6 cells) together with 100 Uγ interferon/0.9 ml RPMI 1640 medium (containing 2 mM L glutamine and 5% heat inactivated fetal calf serum) are pipetted into 24-well culture plates. 100 μl of the compound to be tested are then added. After 3 hours at 37° C. in 5% CO2/95% air, 10 μl lipopolysaccharide (LPS) 500 μg/ml is added and the incubation continued for a further 24 hours. Appropriate controls (with and without stimulus, solvent) are also included. The media are then removed and clarified by centrifugation at 1000 g for 10 min. Samples are stored at […] until the determinations can be made. IL 1β, IL 6 IL-12, and IL-23 assays are determined using commercially available ELISA kits. In these tests, the compounds of the disclosure may inhibit IL-1β, IL-6, IL-12 and IL-23 release at a concentration of about 10 to 50 μM. The compounds are non-toxic based on resazurin measurements as described in Didiot, Hewett et al. (2013). Identification of cardiac glycoside molecules as inhibitors of c-Myc IRES-mediated translation. J Biomol Screen. 18: 407-419.

[2] = test system: IL-1β release from THP 1 cells; experiment: IL-1β release from THP 1 cells measured by ELISA; type: cell-based, human; conditions: IFNγ/LPS-stimulated THP 1 cells
Method: as §1, §2

[3] = test system: IL-23 release from THP 1 cells; experiment: IL-23 release from THP 1 cells measured by ELISA; type: cell-based, human; conditions: IFNγ/LPS-stimulated THP 1 cells
Method: as §1, §2

IL-6 release from PBMCs = IL-6 release from PBMCs measured by ELISA; type: cell-based; conditions: LPS or PHA stimulated human PBMCs
Method: (§3) Mononuclear cells are obtained from the blood of healthy volunteers via centrifugation and cultivated on tissue culture dishes with the test compound at various concentrations Schnyder, Bollinger et al. (1990). Inhibition of interleukin-1 release by IX 207-887. Agents Actions. 30: 350-362. Fresh human mononuclear cells were isolated on Ficoll-Paque gradient and washed several times. Fresh medium, test compound and LPS (10 μg/ml) or PHA (5 μg/ml) as stimulant are added and the monocytes incubated for a further day. The media are then removed and clarified by centrifugation at 1000×g for 10 min. Samples are stored at […] until the determinations can be made. IFNγ, IL 1β, IL 6, and IL-17 are determined using commercially available ELISA kits.

IL-1β release from PBMCs = IL-1β release from PBMCs measured by ELISA; type: cell-based; conditions: LPS or PHA stimulated human PBMCs
Method: as §3

IFNγ release from PBMCs = IFNγ release from PBMCs measured by ELISA; type: cell-based; conditions: 5 μM, human PBMCs
Method: as §3

IL-6 mRNA [4] = experiment: mRNA stability reporter gene (luciferase) assay, IL-6; type: cell-based; conditions: 24 h
Method: (§4) The basic principle of a reporter gene assay for determining compounds that destabilize mRNA is described in detail in WO 00/39314. A number of these assays for various drug targets have been developed and were tested with the compounds described in this disclosure. For THP-1 cells, compound is added at the time of the addition of LPS and luciferase measurements are taken 24 hours later or as indicated. For other cell lines, cells were plated in 96 well plates at 5*10^5 cells per 100 ul per well and incubated over night at 37° C. Compounds were then added and luciferase activity was measured after 24 hours. The activity was compared to other mRNA stability assays established for a range of other drug targets and found to be specific for IL-6, IL-12p40 and IL-23p19. Luciferase activity in the IL-6, IL-12 and IL-23 assays was inhibited by 10 μM benzopyran derivatives by >40% (Table IV).

IL-12 p40 mRNA = experiment: mRNA stability reporter gene (luciferase) assay, IL-12 p40; type: cell-based; conditions: 10 μM, 24 h, n.a. = no activity
Method: as §4

IL-23 p19 mRNA = experiment: mRNA stability reporter gene (luciferase) assay, IL-23 p19; type: cell-based; conditions: 10 μM, 24 h, n.a. = no activity
Method: as §4

IL-6 mRNA [5] = experiment: IL-6 mRNA levels in IFN-γ/LPS-stimulated THP-1 cells (RT-PCR); type: cell-based, human; conditions: γIFN/LPS, 24h, compounds 10 μM, RT-PCR vs β-actin
Method: Total RNA was isolated at t=24 h from IFN-γ/LPS-stimulated THP-1 cells exposed to compounds (10 μM) or DMSO (solvent control) for 24 […], using the RNeasy Midi Kit (Qiagen), according to the manufacturer's instructions, and eluted in DEPC-treated Milli-Q H2O. Quantity and purity of RNA were determined by absorbance at 260 and 280 nm.
For RT-PCR analysis, 1 μg of total RNA was reverse transcribed using AMV reverse transcriptase (Life Sciences Inc., St. Petersburg, Fla.), then amplified by the PCR method. Each PCR reaction also contained a set of β-actin primers as internal control. The levels of the expected PCR product were compared to the constant levels of β-actin. The size of the PCR products was compared to MspI digested pBR322 standards (New England Biolabs). PCR products were analyzed on a 4% agarose gel.
Nucleotide sequences for the oligonucleotide 5′ and 3′ primers, respectively, were: […]

IFN-gamma = experiment: LPS-induced cytokine release in mice, serum IFN-gamma; type: in vivo; conditions: 100 mg/kg pre-treatment; serum 4 h post LPS; CD-1 mouse
Method: (§5) Compounds were evaluated on intra-peritoneal LPS-induced cytokine release measured in serum in the CD-1 mouse. Vehicle, Test item and positive control were administered 1 h before LPS injection as well 30 min post LPS injection (except as otherwise varied herein). In serum samples collected at 4 h post LPS injection, following cytokines were measured by multiplex on MSD 10 V-plex platform: TNF-alpha, IFN-gamma, IL-1beta, IL-2, IL-4, IL-5, IL-6, IL-10, IL-12, KC/GRO. All cytokines except IL-5 were induced by LPS injection (compared with saline injection).
(§6) Serum samples collected at 4h post LPS challenge were analyzed in duplicate wells using multiplex on MSD 10 V-plex platform. […] FIG. 1: Effect of test compounds 333 (TI1) and 1781 (TI2) on IFN-gamma levels in serum of LPS treated mice. FIG. 2: Effect of test compounds 333 (TI1) and 1781 (TI2) on IFN-gamma levels in serum of LPS treated mice (values of individual animals)

IL-12 = experiment: LPS-induced cytokine release in mice, serum IL-12; type: in vivo; conditions: 100 mg/kg pre-treatment; serum 4 h post LPS; CD-1 mouse
Method: as §5, §6

IL-4 = experiment: LPS-induced cytokine release in mice, serum IL-4; type: in vivo; conditions: 100 mg/kg pre-treatment; serum 4 h post LPS; CD-1 mouse
Method: as §5, §6

TNF-alpha = experiment: LPS-induced cytokine release in mice, serum TNF-alpha; type: in vivo; conditions: 100 mg/kg pre-treatment; serum 4 h post LPS; CD-1 mouse
Method: as §5, §6

Htt mRNA = experiment: mRNA stability reporter gene (luciferase) assay, Htt; type: cell-based; conditions: 10 μM, 24 h, n.a. = no activity
Method: as §4

SNCA mRNA = experiment: mRNA stability reporter gene (luciferase) assay, SNCA; type: cell-based; conditions: 10 μM, 24 h, n.a. = no activity
Method: as §4

APP mRNA = experiment: mRNA stability reporter gene (luciferase) assay, APP; type: cell-based; conditions: 10 μM, 24 h, n.a. = no activity
Method: as §4

DNMT1 mRNA = experiment: mRNA stability reporter gene (luciferase) assay, DNMT1; type: cell-based; conditions: 10 μM, 24 h, n.a. = no activity
Method: as §4

IL-12 p40 mRNA stability assay (% inhibition) (IL-12 p40 mRNA) | IL-23 p19 mRNA stability assay (% inhibition) (IL-23 p19 mRNA) | Compound | IL-6 release from THP 1 cells, % control ([1]; 10 μM) [% control] | IL-6 release from THP 1 cells, % control ([1]; 40 μM) [% control] | IL-6 release from THP 1 cells, % control ([1]; 100 μM) [% control] | IL-1β release from THP 1 cells, % control at 10 μM [2] [% control] | IL-23 release from THP 1 cells, % control at 10 μM [3] [% control] | IL-6 release from PBMCs (% control) (IL-6 release from PBMCs; 2.5 μM) | IL-6 release from PBMCs (% control) (IL-6 release from PBMCs; 5 μM) | IL-6 release from PBMCs (% control) (IL-6 release from PBMCs; 10 μM) | IL-6 release from PBMCs (% control) (IL-6 release from PBMCs; 20 μM) | IL-1β release from PBMCs (% control) (IL-1β release from PBMCs; 2.5 μM) | IL-1β release from PBMCs (% control) (IL-1β release from PBMCs; 5 μM) | IL-1β release from PBMCs (% control) (IL-1β release from PBMCs; 10 μM) | IL-1β release from PBMCs (% control) (IL-1β release from PBMCs; 20 μM) | IL-6 mRNA analysis, % ctrl (IL-6 mRNA [5]) [% ctrl] | further results
62 | 41 | COc1ccc(Oc2coc3cc(O)ccc3c2=O)cc1 [Compound 1781] | 74 | 64 | 55 | 100 | 100 | 115 | 127 | 83 | 57 | 136 | 137 | 104 | 104 | 92 | IFNγ release from PBMCs, % control (24 h) (IFNγ release from PBMCs): 75 % control; IL-6 mRNA stability assay (% inhibition) (IL-6 mRNA [4]; 10 μM, luciferase, n.a. = no activity): 84 % inhibition; Effect on LPS-induced increase in serum IFN-gamma level (IFN-gamma): significantly blocked; Effect on serum IL-12 (IL-12): trend of effect; Effect on serum IL-4 (IL-4): trend of effect; Effect on serum TNF-alpha (TNF-alpha): trend of effect
– | – | CC(=O)Oc1ccc2c(=O)c(Oc3ccccc3)coc2c1 [Compound 1782] | 56 | 57 | 28 | 100 | 93 | 106 | 139 | 89 | 61 | 123 | 115 | 109 | 89 | 93 | –
64 | 94 | COc1cc(O)c2c(c1OC)/C=C/C[C@H](O)[C@H](O)C(=O)/C=C\C[C@H](C)OC2=O [RAA, radicicol analog A, reference compound] | 3 | 2 | 3 | – | – | 10 | 9 | 11 | 11 | 4 | 4 | 4 | 4 | – | IC50 (IL-6 mRNA [4]; luciferase reporter, unit printed truncated): 128 nM; Htt mRNA stability assay (% inhibition) (Htt mRNA): 35 % inhibition; SNCA mRNA stability assay (% inhibition) (SNCA mRNA): 25 % inhibition; APP mRNA stability assay (% inhibition) (APP mRNA): 5 % inhibition; DNMT1 mRNA stability assay (% inhibition) (DNMT1 mRNA): 19 % inhibition
